Measurements published in patent US11046720B2, “Dimethylphosphine oxide compound” (GUIZHOU INOCHINI TECHNOLOGY CO., LTD, priority 2018, dated 2021).

tested on: not listed separately; assay: Pharmacokinetic evaluation in C57BL/6 mice, brain tissues and plasma; type: in vivo; conditions: male, C57BL/6, mouse, brain/plasma, oral, 5 mg/kg, read-out: drug concentration ratio between brain tissues and plasma (B/P)
Procedure: Experimental purpose: to study pharmacokinetics of the compounds in vivo in C57BL/6 mice—drug concentration ratio between brain tissues and plasma
Experimental materials: C57BL/6 mice (male, 8 weeks old, weight: 25 g-30 g)
Assay Pharmacokinetic Features of Glires after they are Orally Administered the Compounds According to Standard Schemes.
In the experiment, the candidate compounds are prepared into 1 mg/mL mixed suspension, and mice are orally administered once. The menstruum for oral administration is 10% dimethyl sulfoxide (DMSO)/10% polysorbate/20% PEG-400 aqueous solution. This project uses male C57BL/6 mice, which are orally administered drugs at a dose of 5 mg/kg. Collect the whole brain 0.5, 1, 2 and 4 hours after the administration. Homogenize tissue samples with 15 mM [[…] (pH=7.4) buffer and methanol (volume ratio: 2:1)] at a ratio of 1:5 (w:v). Equally divide the homogenate into 2 samples: one for assay and the other for standby use. Besides, collect plasma 0.5, 1, 2 and 4 hours after administration. Centrifugate with 3,000 g relative centrifugal force within half an hour after collection at about 4° C. for 15 minutes to separate supernatant and obtain plasma samples. Store the plasma samples in polypropylene tubes; rapidly freeze them on dry ice and keep them at −80° C. till LC/MS/MS assay. Add internal standard precipitated protein of acetonitrile solution and fully mix them to extract supernatant samples via centrifugation. Quantitatively analyze plasma concentration by LC-MS/MS assay and calculate pharmacokinetic parameters such as maximal concentration (Cmax), half-life (T1/2), maximal time (Tmax), drug concentration in different tissues after administration (AUC0-last), and drug concentration ratio between brain tissues and plasma (B/P).

SMILES | Kp
COc1nc(N2CC3(CCC3)C2)ccc1Nc1ncc(Cl)c(Nc2ccccc2P(C)(C)=O)n1 [Embodiment 14] | 0.96
COc1nc(N2CC3(C2)CC3(F)F)ccc1Nc1ncc(Cl)c(Nc2ccccc2P(C)(C)=O)n1 [Embodiment 15] | 0.54

same assay, conditions: male, C57BL/6, mouse, oral, 5 mg/kg, brain tissues, read-out: AUC0-last Brain Tissues

SMILES | AUC(0-t)
COc1nc(N2CC3(CCC3)C2)ccc1Nc1ncc(Cl)c(Nc2ccccc2P(C)(C)=O)n1 [Embodiment 14] | 4.2 µM·h
COc1nc(N2CC3(C2)CC3(F)F)ccc1Nc1ncc(Cl)c(Nc2ccccc2P(C)(C)=O)n1 [Embodiment 15] | 2.15 µM·h

same assay, conditions: male, C57BL/6, mouse, oral, 5 mg/kg, brain tissues, read-out: T1/2 Brain Tissues (converted)

SMILES | half-life
COc1nc(N2CC3(C2)CC3(F)F)ccc1Nc1ncc(Cl)c(Nc2ccccc2P(C)(C)=O)n1 [Embodiment 15] | 37.8 min

same assay, conditions: male, C57BL/6, mouse, oral, 5 mg/kg, brain tissues, read-out: Tmax Brain Tissues

SMILES | Tmax
COc1nc(N2CC3(CCC3)C2)ccc1Nc1ncc(Cl)c(Nc2ccccc2P(C)(C)=O)n1 [Embodiment 14] | 60 min
COc1nc(N2CC3(C2)CC3(F)F)ccc1Nc1ncc(Cl)c(Nc2ccccc2P(C)(C)=O)n1 [Embodiment 15] | 30 min

same assay, conditions: male, C57BL/6, mouse, oral, 5 mg/kg, plasma

SMILES | Cmax
COc1nc(N2CC3(CCC3)C2)ccc1Nc1ncc(Cl)c(Nc2ccccc2P(C)(C)=O)n1 [Embodiment 14] | 1.65 µM
COc1nc(N2CC3(C2)CC3(F)F)ccc1Nc1ncc(Cl)c(Nc2ccccc2P(C)(C)=O)n1 [Embodiment 15] | 2.15 µM

same assay, conditions: male, C57BL/6, mouse, oral, 5 mg/kg, plasma, read-out: AUC0-last Plasma

SMILES | AUC(0-t)
COc1nc(N2CC3(CCC3)C2)ccc1Nc1ncc(Cl)c(Nc2ccccc2P(C)(C)=O)n1 [Embodiment 14] | 4.39 µM·h
COc1nc(N2CC3(C2)CC3(F)F)ccc1Nc1ncc(Cl)c(Nc2ccccc2P(C)(C)=O)n1 [Embodiment 15] | 4.02 µM·h

same assay, conditions: male, C57BL/6, mouse, oral, 5 mg/kg, plasma, read-out: T1/2 Plasma (converted)

SMILES | half-life
COc1nc(N2CC3(C2)CC3(F)F)ccc1Nc1ncc(Cl)c(Nc2ccccc2P(C)(C)=O)n1 [Embodiment 15] | 45 min

same assay, conditions: male, C57BL/6, mouse, oral, 5 mg/kg, plasma, read-out: Tmax Plasma

SMILES | Tmax
COc1nc(N2CC3(CCC3)C2)ccc1Nc1ncc(Cl)c(Nc2ccccc2P(C)(C)=O)n1 [Embodiment 14] | 60 min
COc1nc(N2CC3(C2)CC3(F)F)ccc1Nc1ncc(Cl)c(Nc2ccccc2P(C)(C)=O)n1 [Embodiment 15] | 30 min

same assay, conditions: oral, 5 mg/kg, brain tissues

SMILES | Cmax Brain Tissues
COc1nc(N2CC3(CCC3)C2)ccc1Nc1ncc(Cl)c(Nc2ccccc2P(C)(C)=O)n1 [Embodiment 14] | 2.042 µM
COc1nc(N2CC3(C2)CC3(F)F)ccc1Nc1ncc(Cl)c(Nc2ccccc2P(C)(C)=O)n1 [Embodiment 15] | 1.436 µM

biological target: T1, LRRK2 full-length human recombinant protein (Homo sapiens, UniProt Q5S007); assay: In vitro evaluation of LRRK2 kinase inhibitory activity (HTRF / TR-FRET, LRRKtide); type: biochemical; conditions: 57 μM ATP, 0.4 uM Fluorescein-ERM (LRRKtide) peptide
T1 construct: express LRRK2 full-length human recombinant protein in Sf9 cells of insects; GST; made in house; host or cells: Sf9 insect cells (baculovirus)
Procedure: Experimental purpose: to detect transfer of energy signals (ratio of fluorescence signals: […]) after the phosphate group of phosphorylated Fluorescein-ERM (LRRKtide) peptide binds with LanthaScreen® Tb-pERM (pLRRKtide) antibody using homogeneous time-resolved fluorescence. Calculate IC50 for LRRK2 inhibition of the compound to be assayed.
1. Reaction solution: 10 mM 4-(2-hydroxyethyl) piperazine-1-ethanesulfonic acid (pH 7.5); 2 mM magnesium chloride; 0.5 mM glycol-bis-(2-aminoethylether)-N; 0.002% primary alcohol ethoxylate, 1 mM dithiothreitol and 1% DMSO;
2. Assay solution: TR-FRET Dilution Buffer;
3. LRRK2 human recombinant protein: use GST tag and baculovirus to express LRRK2 full-length human recombinant protein in Sf9 cells of insects;
4. Substrate: 0.4 uM Fluorescein-ERM (LRRKtide) peptide; 57 uM ATR
Resonance energy transfer of Fluorescein-ERM (LRRKtide) peptide and LanthaScreen® Tb-pERM (pLRRKtide) antibody between […].
1. Add DMSO solution of the compound to be assayed through the Echo550 non-contact nano-liter acoustic droplet ejection system;
2. Prepare mixed solution of enzyme and polypeptide with freshly prepared reaction solution. Add the mixed solution to the reaction cavity and warm it up at room temperature for 20 minutes in advance;
3. Add 57 μM ATP to initiate reaction, which lasts for 90 minutes at room temperature;
4. Add fluorescein-ERM (LRRKtide) peptide, LanthaScreen® Tb-pERM (pLRRKtide) antibody and 10 mM ethylene diamine tetraacetic acid to the assay system. The reaction lasts for 60 minutes at room temperature. Detect yellow light signals with Em/Ex 520/485.
5. Measure enzyme activity inhibition relative to DMSO blank control group according to the signal ratio, and calculate IC50 by fitting curves with the software XLfit5.

T1 sequence (Q5S007 whole entry): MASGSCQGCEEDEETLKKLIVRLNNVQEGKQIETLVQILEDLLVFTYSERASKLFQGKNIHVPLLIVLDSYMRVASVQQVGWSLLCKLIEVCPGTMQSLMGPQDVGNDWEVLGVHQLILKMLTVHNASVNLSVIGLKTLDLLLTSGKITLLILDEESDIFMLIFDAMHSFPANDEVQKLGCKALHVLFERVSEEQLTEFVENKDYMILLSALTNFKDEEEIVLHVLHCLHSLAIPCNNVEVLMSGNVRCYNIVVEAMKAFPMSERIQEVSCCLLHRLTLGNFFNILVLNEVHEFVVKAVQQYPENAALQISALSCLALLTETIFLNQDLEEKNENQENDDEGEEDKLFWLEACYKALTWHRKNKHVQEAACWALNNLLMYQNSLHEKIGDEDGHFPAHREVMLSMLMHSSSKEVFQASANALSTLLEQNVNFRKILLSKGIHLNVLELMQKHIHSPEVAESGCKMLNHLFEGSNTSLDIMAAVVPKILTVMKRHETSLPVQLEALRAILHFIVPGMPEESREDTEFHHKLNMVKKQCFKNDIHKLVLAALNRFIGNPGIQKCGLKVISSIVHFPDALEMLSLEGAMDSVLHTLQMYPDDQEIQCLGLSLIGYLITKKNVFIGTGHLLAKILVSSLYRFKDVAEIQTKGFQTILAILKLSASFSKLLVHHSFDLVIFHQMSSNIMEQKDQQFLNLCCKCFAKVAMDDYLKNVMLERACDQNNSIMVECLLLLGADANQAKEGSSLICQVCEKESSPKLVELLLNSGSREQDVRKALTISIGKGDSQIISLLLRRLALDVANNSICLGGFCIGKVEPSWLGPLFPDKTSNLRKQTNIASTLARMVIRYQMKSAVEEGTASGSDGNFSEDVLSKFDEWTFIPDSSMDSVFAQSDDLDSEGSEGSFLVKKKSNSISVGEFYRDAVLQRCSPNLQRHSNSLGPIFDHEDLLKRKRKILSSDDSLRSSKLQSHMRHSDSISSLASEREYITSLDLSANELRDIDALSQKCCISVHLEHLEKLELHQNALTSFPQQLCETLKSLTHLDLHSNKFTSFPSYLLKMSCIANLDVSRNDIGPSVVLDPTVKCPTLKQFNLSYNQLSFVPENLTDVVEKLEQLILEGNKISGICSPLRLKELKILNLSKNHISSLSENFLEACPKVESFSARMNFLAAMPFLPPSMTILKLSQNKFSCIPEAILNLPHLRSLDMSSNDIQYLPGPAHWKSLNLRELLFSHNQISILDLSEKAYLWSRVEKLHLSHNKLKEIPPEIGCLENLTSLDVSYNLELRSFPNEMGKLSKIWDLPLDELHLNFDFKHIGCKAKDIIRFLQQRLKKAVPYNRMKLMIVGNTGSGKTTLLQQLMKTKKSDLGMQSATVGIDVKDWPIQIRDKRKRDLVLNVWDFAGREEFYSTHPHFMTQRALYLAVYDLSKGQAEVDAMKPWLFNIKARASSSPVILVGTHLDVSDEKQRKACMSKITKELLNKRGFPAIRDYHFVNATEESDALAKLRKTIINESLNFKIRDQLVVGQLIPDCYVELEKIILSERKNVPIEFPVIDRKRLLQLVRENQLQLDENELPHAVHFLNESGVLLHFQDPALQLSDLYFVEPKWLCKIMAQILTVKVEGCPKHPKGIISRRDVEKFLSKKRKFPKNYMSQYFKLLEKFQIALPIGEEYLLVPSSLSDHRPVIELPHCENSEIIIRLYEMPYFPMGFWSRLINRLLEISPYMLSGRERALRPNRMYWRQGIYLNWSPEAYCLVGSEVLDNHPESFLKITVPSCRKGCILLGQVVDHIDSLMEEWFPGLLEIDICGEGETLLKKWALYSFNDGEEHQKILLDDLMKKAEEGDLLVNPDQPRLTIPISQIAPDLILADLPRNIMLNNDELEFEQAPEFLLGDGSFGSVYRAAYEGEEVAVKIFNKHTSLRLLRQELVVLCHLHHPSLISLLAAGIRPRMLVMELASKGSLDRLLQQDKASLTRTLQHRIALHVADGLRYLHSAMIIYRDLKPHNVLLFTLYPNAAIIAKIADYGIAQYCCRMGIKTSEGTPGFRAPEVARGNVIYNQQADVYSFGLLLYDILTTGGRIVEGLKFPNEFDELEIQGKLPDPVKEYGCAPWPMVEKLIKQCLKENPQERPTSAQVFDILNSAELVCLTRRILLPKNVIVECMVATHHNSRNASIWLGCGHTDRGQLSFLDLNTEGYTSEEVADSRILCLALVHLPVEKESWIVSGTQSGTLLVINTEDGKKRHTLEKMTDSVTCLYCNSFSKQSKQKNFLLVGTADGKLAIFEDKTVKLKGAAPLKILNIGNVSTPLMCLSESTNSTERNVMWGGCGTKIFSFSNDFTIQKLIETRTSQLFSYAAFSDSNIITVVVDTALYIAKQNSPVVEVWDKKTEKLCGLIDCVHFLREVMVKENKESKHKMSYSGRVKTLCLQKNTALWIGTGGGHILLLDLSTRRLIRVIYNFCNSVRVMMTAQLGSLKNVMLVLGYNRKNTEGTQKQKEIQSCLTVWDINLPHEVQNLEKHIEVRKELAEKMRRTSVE

SMILES | IC50
COc1nc(N2CCC3(CCOC3)C2)ccc1Nc1ncc(Cl)c(Nc2ccccc2P(C)(C)=O)n1 (centres unmarked) [Embodiment 1] | 0.021 µM
COc1nc(N2CCC3(CCCOC3)C2)ccc1Nc1ncc(Cl)c(Nc2ccccc2P(C)(C)=O)n1 (centres unmarked) [Embodiment 2] | 0.0244 µM
COc1nc(N2CCC3(CCCCO3)C2)ccc1Nc1ncc(Cl)c(Nc2ccccc2P(C)(C)=O)n1 (centres unmarked) [Embodiment 4] | 0.0342 µM
COc1nc(N2CCC3(CCCO3)C2)ccc1Nc1ncc(Cl)c(Nc2ccccc2P(C)(C)=O)n1 (centres unmarked) [Embodiment 5] | 0.0082 µM
COc1nc(N2CC3(CCC3)C2)ccc1Nc1ncc(Cl)c(Nc2ccccc2P(C)(C)=O)n1 [Embodiment 14] | 0.0152 µM
COc1nc(N2CC3(C2)CC3(F)F)ccc1Nc1ncc(Cl)c(Nc2ccccc2P(C)(C)=O)n1 [Embodiment 15] | 0.0074 µM

biological target: T2, LRRK2 (pSer935) (Homo sapiens, UniProt Q5S007); assay: In vitro evaluation of inhibitory activity for LRRK2 cell (pSer935), 293T cells transfected with pcmv-flag-lrrk2, MSD; type: cell-based; conditions: not given
T2 construct: expressed in transfected cells; host or cells: 293T cells
Procedure: Take 293T cells out of liquid nitrogen and put them in water at 37° C. After ice has fully thawed, transfer the cells to 5 mL warm culture medium. Discard the supernatant through centrifugation, and culture the suspended cells in the culture medium as new cells.
Culture the 293T cells in the culture medium for two to three days.
Plant 1.4×10^6/293T cells on a culture plate. After two days of culturing, cells will multiply to 5×10^6, so planting cells on N+1 plates is enough for performing experiments on N 96-well plates.
1) Add 5 μl (0.5 μg/μl) pcmv-flag-Irrk2 to 145 μl DMEM culture medium, and mix them evenly with a straw;
6) Incubate the culture plate inside a humidified incubator with 5% carbon dioxide for 20 to 24 hours at 37° C.
3. (Day 3) Plant the 293T Cells on the 96-Well Plate;
3) Transfer 50 μl inhibitor containing culture medium to the cell culture plate;
4) Incubate the culture plate inside a humidified incubator with 5% carbon dioxide for 20 to 24 hours at 37° C.;
5) Extract 300 μl inhibitor containing culture medium with a dropper. Take 200 μl inhibitor containing culture medium and add 100 μl decomposer into the culture medium. After the plate has been sealed, it shall be shaken for 30 minutes at 4° C.
1) Add 2 μg/25 μl labeled antibody to the MSD plate to incubate for 2 hours; (50 μl 3.9 μg/μl Flag antibody+2.5 ml fetal bovine serum per plate). Maintain centrifugation for 10 s (1,000 rpm);
5) Transfer 12.5 μl lysis buffer and 12.5 μl cell lysis buffer to the MSD plate to incubate for 1 hour at room temperature;
7) Dilute ps935 antibody at 1:200, and add 25 μl antibody to incubate for 1 hour;
9) Dilute goat anti-rabbit antibody at 1:500, and add 25 μl antibody to the incubation plate to incubate for 1 hour;
13) After incubation for about 3 minutes, read data over 15 minutes.

T2 sequence (Q5S007 whole entry): as above

SMILES | IC50
COc1nc(N2CCC3(CCCO3)C2)ccc1Nc1ncc(Cl)c(Nc2ccccc2P(C)(C)=O)n1 (centres unmarked) [Embodiment 5] | 0.004 µM
